The results in this text go back to US20230093861A1, “RAPAMYCIN ANALOGS AS MTOR INHIBITORS” (Revolution Medicines, Inc., priority 2017, published 2023).

Where two headings read alike, the source gives them in different places.

The test system of one experiment is P-P70S6K (T389). Briefly: Cell based AlphaLISA assay, inhibition of P-P70S6K (T389) (mTORC1 substrate phosphorylation) in MDA-MB-468 cells. The conditions noted are these: Homo sapiens, 4 h, AlphaLISA, two to four hours at 37° C., read-out: pIC50 for Inhibition of mTORC1 and mTORC2 Substrate Phosphorylation, P-P70S6K-(T389) (converted). An outline of the steps: (§1)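 Readout is the Alpha signal for each phosphoprotein, measured in duplicate from cell lysates with a SureFire Ultra homogeneous assay. IC50 values derive from inhibitor concentration-response curves fitted by normalized regression against controls.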
A general note: Alpha assays give light when donor and acceptor beads are brought close together.

The test system of another experiment is P-Akt (S473). As to the kind of experiment: Cell based AlphaLISA assay, inhibition of P-Akt (S473) (mTORC2 substrate phosphorylation) in MDA-MB-468 cells. Conditions: Homo sapiens, AlphaLISA, two to four hours at 37° C., read-out: pIC50 for Inhibition of mTORC1 and mTORC2 Substrate Phosphorylation, p-AKT 1/2/3 -(S473) (converted). In a few lines: as §1
In a further experiment the test system is P-4E-BP1 (T37/46). As to the kind of experiment: Cell based AlphaLISA assay, inhibition of P-4E-BP1 (T37/46) (mTORC1 substrate phosphorylation) in MDA-MB-468 cells. Conditions: Homo sapiens, AlphaLISA, two to four hours at 37° C., read-out: pIC50 for Inhibition of mTORC1 and mTORC2 Substrate Phosphorylation, P-4E-BP1-(T37/46) (converted). An outline of the steps:
as §1

As to `CO[C@H]1C[C@@H]2CC[C@@H](C)[C@@](O)(O2)C(=O)C(=O)N2CCCC[C@H]2C(=O)O[C@H]([C@H](C)C[C@@H]2CC[C@@H](OCCCCc3cn(CCOCCOCCOCCOCCOCCOCCOCCOCCC(=O)NCCCCn4nc(-c5cc6cc(O)ccc6[nH]5)c5c(N)ncnc54)nn3)[C@H](OC)C2)CC(=O)[C@H](C)/C=C(\C)[C@@H](O)[C@@H](OC)C(=O)[C@H](C)C[C@H](C)/C=C/C=C/C=C/1C` [Example 42], the results for the IC50 in the experiment with P-P70S6K (T389), in the experiment on P-Akt (S473) (4 h) and with P-4E-BP1 (T37/46) (4 h) were under 1 nM, 3.16 to 31.6 nM and under 3.16 nM, respectively.
Taken in the same sequence, the figures for `CO[C@H]1C[C@@H]2CC[C@@H](C)[C@@](O)(O2)C(=O)C(=O)N2CCCC[C@H]2C(=O)O[C@H]([C@H](C)C[C@@H]2CC[C@@H](OCCCCc3cn(CCOCCOCCOCCOCCOCCOCCC(=O)NCCCCn4nc(-c5cc6cc(O)ccc6[nH]5)c5c(N)ncnc54)nn3)[C@H](OC)C2)CC(=O)[C@H](C)/C=C(\C)[C@@H](O)[C@@H](OC)C(=O)[C@H](C)C[C@H](C)/C=C/C=C/C=C/1C` [Example 43] were under 1 nM, 31.6 to 1000 nM and 31.6 to 1000 nM.
For `COc1ccc(-c2ccc3ncc4c(c3c2)n(-c2ccc(N3CCN(C(=O)CCOCCOCCOCCOCCOCCOCCn5cc(CCCCO[C@@H]6CC[C@@H](C[C@@H](C)[C@@H]7CC(=O)[C@H](C)/C=C(\C)[C@@H](O)[C@@H](OC)C(=O)[C@H](C)C[C@H](C)/C=C/C=C/C=C(\C)[C@@H](OC)C[C@@H]8CC[C@@H](C)[C@@](O)(O8)C(=O)C(=O)N8CCCC[C@H]8C(=O)O7)C[C@H]6OC)nn5)CC3)c(C(F)(F)F)c2)c(=O)n4C)cn1` [Example 44], the IC50 was under 1 nM with P-P70S6K (T389), under 3.16 nM in the experiment with P-Akt (S473) (4 h) and under 3.16 nM in the experiment with P-4E-BP1 (T37/46) (4 h).
For the molecule `CO[C@H]1C[C@@H]2CC[C@@H](C)[C@@](O)(O2)C(=O)C(=O)N2CCCC[C@H]2C(=O)O[C@H]([C@H](C)C[C@@H]2CC[C@@H](OCc3cccc(-c4cnc(N5CCN(C(=O)CCc6cn(CCOCCOCCOCCC(=O)NCCCCn7nc(-c8ccc9oc(N)nc9c8)c8c(N)ncnc87)nn6)CC5)nc4)c3)[C@H](OC)C2)CC(=O)[C@H](C)/C=C(\C)[C@@H](O)[C@@H](OC)C(=O)[C@H](C)C[C@H](C)/C=C/C=C/C=C/1C` [Example 46], the IC50 is under 1 nM in the experiment with P-P70S6K (T389); 3.16 to 31.6 nM with P-Akt (S473) (MDA-MB-468, 4 h); under 3.16 nM in the experiment on P-4E-BP1 (T37/46) (MDA-MB-468, 4 h).
In the same order, the values of `CO[C@H]1C[C@@H]2CC[C@@H](C)[C@@](O)(O2)C(=O)C(=O)N2CCCC[C@H]2C(=O)O[C@H]([C@H](C)C[C@@H]2CC[C@@H](OCc3cccc(-c4cnc(N5CCN(C(=O)CCc6cn(CCOCCOCCC(=O)NCCCCn7nc(-c8ccc9oc(N)nc9c8)c8c(N)ncnc87)nn6)CC5)nc4)c3)[C@H](OC)C2)CC(=O)[C@H](C)/C=C(\C)[C@@H](O)[C@@H](OC)C(=O)[C@H](C)C[C@H](C)/C=C/C=C/C=C/1C` [Example 47] are under 1 nM, 3.16 to 31.6 nM and under 3.16 nM.
In the same order, the values of `CO[C@H]1C[C@@H]2CC[C@@H](C)[C@@](O)(O2)C(=O)C(=O)N2CCCC[C@H]2C(=O)O[C@H]([C@H](C)C[C@@H]2CC[C@H](n3nncc3-c3cccc(-c4cnc(N5CCN(C(=O)CCc6cn(CCOCCOCCOCCC(=O)NCCCCn7nc(-c8ccc9oc(N)nc9c8)c8c(N)ncnc87)nn6)CC5)nc4)c3)[C@H](OC)C2)CC(=O)[C@H](C)/C=C(\C)[C@@H](O)[C@@H](OC)C(=O)[C@H](C)C[C@H](C)/C=C/C=C/C=C/1C` [Example 48] are under 1 nM, 3.16 to 31.6 nM and under 3.16 nM.
Taken in the same sequence, the figures for `CO[C@H]1C[C@@H]2CC[C@@H](C)[C@@](O)(O2)C(=O)C(=O)N2CCCC[C@H]2C(=O)O[C@H]([C@H](C)C[C@@H]2CC[C@H](n3nncc3-c3cccc(-c4cnc(N5CCN(C(=O)CCc6cn(CCOCCOCCC(=O)NCCCCn7nc(-c8ccc9oc(N)nc9c8)c8c(N)ncnc87)nn6)CC5)nc4)c3)[C@H](OC)C2)CC(=O)[C@H](C)/C=C(\C)[C@@H](O)[C@@H](OC)C(=O)[C@H](C)C[C@H](C)/C=C/C=C/C=C/1C` [Example 49] were under 1 nM, 31.6 to 1000 nM and under 3.16 nM.
Turning to `CO[C@H]1C[C@@H]2CC[C@@H](C)[C@@](O)(O2)C(=O)C(=O)N2CCCC[C@H]2C(=O)O[C@H]([C@H](C)C[C@@H]2CC[C@@H](O)[C@H](OC)C2)C[C@@H](O)[C@H](C)/C=C(\C)[C@@H](O)[C@@H](OC)C(=NOCc2cn(CCOCCOCCOCCOCCOCCOCCOCCOCCC(=O)NCCCCn3nc(-c4ccc5oc(N)nc5c4)c4c(N)ncnc43)nn2)[C@H](C)C[C@H](C)/C=C/C=C/C=C/1C` [Example 50], the IC50 with P-P70S6K (T389) is 1 to 10 nM; in the experiment with P-Akt (S473) (MDA-MB-468, 4 h), 31.6 to 1000 nM; in the experiment with P-4E-BP1 (T37/46) (MDA-MB-468, 4 h), 3.16 to 31.6 nM.
As for `CO[C@H]1C[C@@H]2CC[C@@H](C)[C@@](O)(O2)C(=O)C(=O)N2CCCC[C@H]2C(=O)O[C@H]([C@H](C)C[C@@H]2CC[C@@H](O)[C@H](OC)C2)C[C@@H](O)[C@H](C)/C=C(\C)[C@@H](O)[C@@H](OC)C(=NOCc2cn(CCOCCOCCOCCOCCOCCOCCC(=O)NCCCCn3nc(-c4ccc5oc(N)nc5c4)c4c(N)ncnc43)nn2)[C@H](C)C[C@H](C)/C=C/C=C/C=C/1C` [Example 51], the IC50 in the experiment with P-P70S6K (T389) is 1 to 10 nM; in the experiment on P-Akt (S473) (MDA-MB-468, 4 h), 31.6 to 1000 nM; in the experiment with P-4E-BP1 (T37/46) (MDA-MB-468, 4 h), 3.16 to 31.6 nM.
Regarding `COc1ccc(-c2ccc3ncc4c(c3c2)n(-c2ccc(N3CCN(C(=O)CCOCCOCCOCCOCCOCCOCCn5cc(CON=C6[C@H](C)C[C@H](C)/C=C/C=C/C=C(\C)[C@@H](OC)C[C@@H]7CC[C@@H](C)[C@@](O)(O7)C(=O)C(=O)N7CCCC[C@H]7C(=O)O[C@H]([C@H](C)C[C@@H]7CC[C@@H](O)[C@H](OC)C7)C[C@@H](O)[C@H](C)/C=C(\C)[C@@H](O)[C@H]6OC)nn5)CC3)c(C(F)(F)F)c2)c(=O)n4C)cn1` [Example 52], the IC50 with P-P70S6K (T389) is under 1 nM; with P-Akt (S473) (MDA-MB-468, 4 h), 3.16 to 31.6 nM; with P-4E-BP1 (T37/46) (MDA-MB-468, 4 h), 3.16 to 31.6 nM.
On to `CO[C@H]1C[C@@H]2CC[C@@H](C)[C@@](O)(O2)C(=O)C(=O)N2CCCC[C@H]2C(=O)O[C@H]([C@H](C)C[C@@H]2CC[C@@H](OCCOCc3cn(CCOCCOCCOCCOCCOCCOCCOCCOCCC(=O)NCCCCn4nc(-c5cc6cc(O)ccc6[nH]5)c5c(N)ncnc54)nn3)[C@H](OC)C2)CC(=O)[C@H](C)/C=C(\C)[C@@H](O)[C@@H](OC)C(=O)[C@H](C)C[C@H](C)/C=C/C=C/C=C/1C` [Example 53], for which the IC50 with P-P70S6K (T389) is under 1 nM; with P-Akt (S473) (4 h) it was 3.16 to 31.6 nM; in the experiment with P-4E-BP1 (T37/46) (4 h), under 3.16 nM.
Take `CO[C@H]1C[C@@H]2CC[C@@H](C)[C@@](O)(O2)C(=O)C(=O)N2CCCC[C@H]2C(=O)O[C@H]([C@H](C)C[C@@H]2CC[C@@H](OCCOCc3cn(CCOCCOCCOCCOCCOCCOCCC(=O)N4CC(Cn5nc(-c6ccc7oc(N)nc7c6)c6c(N)ncnc65)C4)nn3)[C@H](OC)C2)CC(=O)[C@H](C)/C=C(\C)[C@@H](O)[C@@H](OC)C(=O)[C@H](C)C[C@H](C)/C=C/C=C/C=C/1C` [Example 57]: the IC50 is under 1 nM in the experiment on P-P70S6K (T389); 3.16 to 31.6 nM with P-Akt (S473) (MDA-MB-468, 4 h); under 3.16 nM in the experiment on P-4E-BP1 (T37/46) (MDA-MB-468, 4 h).
As to `CO[C@H]1C[C@@H]2CC[C@@H](C)[C@@](O)(O2)C(=O)C(=O)N2CCCC[C@H]2C(=O)O[C@H]([C@H](C)C[C@@H]2CC[C@@H](OCCC(C)(C)Cc3cn(CCOCCOCCOCCOCCOCCOCCOCCOCCC(=O)NCCCCn4nc(-c5ccc6oc(N)nc6c5)c5c(N)ncnc54)nn3)[C@H](OC)C2)CC(=O)[C@H](C)/C=C(\C)[C@@H](O)[C@@H](OC)C(=O)[C@H](C)C[C@H](C)/C=C/C=C/C=C/1C` [Example 58], the IC50 with P-P70S6K (T389) is under 1 nM; in the experiment with P-Akt (S473) (MDA-MB-468, 4 h), under 3.16 nM; in the experiment on P-4E-BP1 (T37/46) (MDA-MB-468, 4 h), under 3.16 nM.
Turning to `CO[C@H]1C[C@@H]2CC[C@@H](C)[C@@](O)(O2)C(=O)C(=O)N2CCCC[C@H]2C(=O)O[C@H]([C@H](C)C[C@@H]2CC[C@@H](OCCC(C)(C)Cc3cn(CCOCCOCCOCCOCCOCCOCCC(=O)NCCCCn4nc(-c5ccc6oc(N)nc6c5)c5c(N)ncnc54)nn3)[C@H](OC)C2)CC(=O)[C@H](C)/C=C(\C)[C@@H](O)[C@@H](OC)C(=O)[C@H](C)C[C@H](C)/C=C/C=C/C=C/1C` [Example 59], the IC50 was under 1 nM with P-P70S6K (T389); 3.16 to 31.6 nM in the experiment on P-Akt (S473) (MDA-MB-468, 4 h); under 3.16 nM in the experiment with P-4E-BP1 (T37/46) (MDA-MB-468, 4 h).
As to `CO[C@H]1C[C@@H]2CC[C@@H](C)[C@@](O)(O2)C(=O)C(=O)N2CCCC[C@H]2C(=O)O[C@H]([C@H](C)C[C@@H]2CC[C@@H](OC(=O)NCc3cn(CCOCCOCCOCCOCCOCCOCCC(=O)NCCCCn4nc(-c5ccc6oc(N)nc6c5)c5c(N)ncnc54)nn3)[C@H](OC)C2)CC(=O)[C@H](C)/C=C(\C)[C@@H](O)[C@@H](OC)C(=O)[C@H](C)C[C@H](C)/C=C/C=C/C=C/1C` [Example 60], the IC50 was under 1 nM with P-P70S6K (T389); 3.16 to 31.6 nM in the experiment on P-Akt (S473) (MDA-MB-468, 4 h); under 3.16 nM in the experiment with P-4E-BP1 (T37/46) (MDA-MB-468, 4 h).
Taken in the same sequence, the figures for `CO[C@H]1C[C@@H]2CC[C@@H](C)[C@@](O)(O2)C(=O)C(=O)N2CCCC[C@H]2C(=O)O[C@H]([C@H](C)C[C@@H]2CC[C@@H](OC(=O)NCc3cn(CCOCCOCCOCCOCCOCCOCCOCCOCCC(=O)NCCCCn4nc(-c5ccc6oc(N)nc6c5)c5c(N)ncnc54)nn3)[C@H](OC)C2)CC(=O)[C@H](C)/C=C(\C)[C@@H](O)[C@@H](OC)C(=O)[C@H](C)C[C@H](C)/C=C/C=C/C=C/1C` [Example 61] were 1 to 10 nM, 3.16 to 31.6 nM and 3.16 to 31.6 nM.
